Laboratory results taken from patent US8916599B2, “1H-benz imidazole-5-carboxamides as anti-inflammatory agents” (Orexo AB, priority 2008, dated 2014).

biological target: T1, recombinant human mPGES-1 (Homo sapiens, UniProt O14684); assay: mPGES-1 inhibition test (microsomes, PGH2 substrate, HTRF detection of PGE2); format: biochemical; conditions: inhibition of mPGES-1 at 1 μM (marked in cell)
T1 construct: made in house; host or cells: Rosetta E. coli (microsomal/membrane fraction)
T1 sequence (O14684 1-152): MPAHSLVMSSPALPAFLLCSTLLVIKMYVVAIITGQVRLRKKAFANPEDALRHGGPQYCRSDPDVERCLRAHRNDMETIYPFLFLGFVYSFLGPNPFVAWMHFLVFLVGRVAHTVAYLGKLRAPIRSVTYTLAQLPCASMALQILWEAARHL
How it was run: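 Microsomes from E. coli Rosetta expressing the enzyme, in 0.1 M KPi pH 7.4 with 2.5 mM GSH, were preincubated 25 min at room temperature with inhibitor in DMSO. PGH2 was added, the reaction stopped after one minute with acidified FeCl2, and PGE2 quantified by HTRF after 750-fold dilution.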

inhibition at 1 µM [%]	Structure (SMILES)
100	O=C(Nc1ccc(Br)c(F)c1)c1ccc2[nH]c(Nc3c(Cl)cccc3Cl)nc2c1 [Example 68, 2-(2,6-Dichloro-phenylamino)-1H-benzimidazole-5-carboxylic acid (4-bromo-3-fluoro-phenyl)-amide]
92	COc1cc2[nH]c(Nc3c(Cl)ccc(C)c3F)nc2cc1C(=O)NC1CCC(C)(C)CC1 [Example 626]
96	CC(C)Oc1cc2c(cc1C(=O)NC1CCC(C(F)(F)F)CC1)nc(Nc1c(Cl)ccc(Cl)c1F)n2C (stereo not drawn) [Example 644, 2-(3,6-Dichloro-2-fluoro-phenylamino)-6-isopropoxy-N-(4-trans-trifluoromethyl-cyclohex-1-yl)-1-methyl-1H-benzimidazole-5-carboxamide]
100	COc1cc2c(cc1C(=O)NC1CCC3(CC1)CC3)nc(Nc1c(Cl)ccc(Cl)c1F)n2C [Example 645, 2-(3,6-Dichloro-2-fluoro-phenylamino)-6-methoxy-N-(spiro[2.5]oct-6-yl)-1-methyl-1H-benzimidazole-5-carboxamide]

same assay, conditions: inhibition of mPGES-1 at 10 μM

inhibition at 10 µM [%]	Structure (SMILES)
94	CCOc1cc2[nH]c(Nc3c(Cl)ccc(Cl)c3F)nc2cc1C(=O)NC1CCC(C)(C)CC1 [Example 600, 2-(3,6-Dichloro-2-fluoro-phenylamino)-N-(4,4-dimethyl-cyclohexyl)-6-ethoxy-1H-benzimidazole-5-carboxamide]
100	Cc1cnc(CNC(=O)c2cc3nc(Nc4c(Cl)cccc4Cl)n(C)c3cc2F)c(C)c1 [Example 470, 2-(2,6-Dichlorophenylamino)-N-((3,5-dimethylpyridin-2-yl)methyl)-6-fluoro-1-methyl-1H-benzimidazole-5-carboxamide]
99	Cc1ccc(Nc2nc3cc(C(=O)Nc4ccc(Br)cc4)ccc3n2C)c(Cl)c1 [Example 512, N-(4-Bromophenyl)-2-(2-chloro-4-methylphenylamino)-1-methyl-1H-benzimidazole-5-carboxamide]
60	Cn1c(Nc2c(Cl)cccc2Cl)nc2cc(C(=O)NCc3c(C(F)(F)F)ccc[n+]3[O-])c(F)cc21 [Example 568, 2-((2-(2,6-Dichlorophenylamino)-6-fluoro-1-methyl-1H-benzimidazole-5-carboxamido)methyl)-3-trifluoromethyl-pyridine 1-oxide]
99	COc1cc2[nH]c(Nc3c(Cl)ccc(Cl)c3F)nc2cc1C(=O)NC1CCCCC1 [Example 612, 2-(3,6-Dichloro-2-fluoro-phenylamino)-N-cyclohexyl-6-methoxy-1H-benzimidazole-5-carboxamide]
99	Cc1cnc(NC(=O)c2cc3nc(Nc4c(Cl)cccc4Cl)n(C)c3cc2F)cc1C [Example 421, 2-(2,6-Dichlorophenylamino)-N-(4,5-dimethylpyridin-2-yl)-6-fluoro-1-methyl-1H-benzimidazole-5-carboxamide]
100	COc1cc2[nH]c(Nc3c(Cl)cccc3Cl)nc2cc1C(=O)NCc1ncccc1C [Example 577, 2-(2,6-Dichlorophenylamino)-6-methoxy-N-((3-methylpyridin-2-yl)-methyl)-1H-benzimidazole-5-carboxamide]
100	COc1cc2[nH]c(Nc3c(Cl)cccc3Cl)nc2cc1C(=O)NCc1ncccc1Cl [Example 630]
92	O=C(Nc1cc(Cl)c(Cl)c(Cl)c1)c1ccc2[nH]c(Nc3c(Cl)cccc3Cl)nc2c1 [Example 287, 2-(2,6-Dichloro-phenylamino)-1H-benzimidazole-5-carboxylic acid (3,4,5-trichloro-phenyl)-amide]
100	O=C(Nc1ccc(Br)cc1)c1cc2nc(Nc3c(Cl)cc(F)cc3Cl)[nH]c2cc1OCCF [Example 585, 2-(2,6-Dichloro-4-fluoro-phenylamino)-N-(4-bromo-phenyl)-6-(2-fluoroethoxy)-1H-benzimidazole-5-carboxamide]
100	CC(C)(C)[C@H]1CC[C@H](NC(=O)c2cc3nc(Nc4c(Cl)cccc4Cl)[nH]c3cc2F)CC1 [Example 356, N-((1r,4r)-4-tert.-Butylcyclohexyl)-2-(2,6-dichlorophenylamino)-6-fluoro-1H-benzimidazole-5-carboxamide]
87	CC(C)Oc1cc2[nH]c(Nc3c(Cl)ccc(Cl)c3F)nc2cc1C(=O)Nc1ccc(Br)cc1 [Example 610, 2-(3,6-Dichloro-2-fluoro-phenylamino)-N-(4-bromo-phenyl)-6-isopropoxy-1H-benzimidazole-5-carboxamide]
100	Cn1c(Nc2c(F)cccc2Cl)nc2cc(C(=O)NC3CCC(C)(C)CC3)c(F)cc21 [Example 430, 2-(2-Chloro-6-fluorophenylamino)-N-(4,4-dimethylcyclohexyl)-6-fluoro-1-methyl-1H-benzimidazole-5-carboxamide]
95	Cc1cccc(NC(=O)c2ccc3c(c2)nc(Nc2c(Cl)cccc2Cl)n3C)n1 [compound 328]
82	CN(C)c1cc(C(F)(F)F)cc(NC(=O)c2cc3nc(Nc4c(Cl)cc(F)cc4Cl)[nH]c3cc2OCC(F)(F)F)n1 [Example 575, 2-(2,6-Dichloro-4-fluoro-phenylamino)-N-(6-dimethylamino-4-trifluoromethyl-pyridin-2-yl)-6-(2,2,2-trifluorethoxy)-1H-benzimidazole-5-carboxamide]
100	Cc1ccc(NC(=O)c2ccc3[nH]c(Nc4c(Cl)cccc4Cl)nc3c2)nc1C [Example 498, 2-(2,6-Dichlorophenylamino)-N-(5,6-dimethylpyridin-2-yl)-1H-benzimidazole-5-carboxamide]

The remaining lines, values behind:

Structure (SMILES)	inhibition at 10 µM [%]
Cn1c(Nc2c(Cl)cccc2Cl)nc2cc(C(=O)NCC3CCCO3)ccc21 (stereo not shown) [Example 261, 2-(2,6-Dichloro-phenylamino)-1-methyl-1H-benzimidazole-5-carboxylic acid (tetrahydro-furan-2-ylmethyl)-amide]	92
O=C(Nc1ccc(Br)cc1)c1cc2nc(Nc3c(Cl)cccc3Cl)[nH]c2cc1Cl [Example 53, 2-(2,6-Dichloro-phenylamino)-6-chloro-1H-benzimidazole-5-carboxylic acid (4-bromo-phenyl)-amide]	100
O=C(Nc1ncccc1C(F)(F)F)c1ccc2[nH]c(Nc3c(Cl)cccc3Cl)nc2c1 [Example 190, 2-(2,6-Dichloro-phenylamino)-1H-benzimidazole-5-carboxylic acid (3-trifluoromethyl-pyridin-2-yl)-amide]	75
O=C(NCC1CCOCC1)c1ccc2[nH]c(Nc3c(Cl)cccc3Cl)nc2c1 [Example 217, 2-(2,6-Dichloro-phenylamino)-1H-benzimidazole-5-carboxylic acid (tetrahydro-pyran-4-ylmethyl)-amide]	54
Cn1c(Nc2c(Cl)cccc2Cl)nc2cc(C(=O)NCC3CCCC3)ccc21 [Example 243, 2-(2,6-Dichloro-phenylamino)-1-methyl-1H-benzimidazole-5-carboxylic acid cyclopentylmethyl-amide]	93
Cc1nc(NC(=O)c2ccc3[nH]c(Nc4c(Cl)cccc4Cl)nc3c2)sc1C [Example 77, 2-(2,6-Dichloro-phenylamino)-1H-benzimidazole-5-carboxylic acid (4,5-dimethyl-thiazol-2-yl)-amide]	96
O=C(Nc1ccc(I)cc1)c1cc2nc(Nc3c(Cl)cccc3Cl)[nH]c2cc1Cl [Example 57, 2-(2,6-Dichloro-phenylamino)-6-chloro-1H-benzimidazol-5-carboxylic acid (4-iodo-phenyl)-amide]	96
COCCn1c(Nc2c(Cl)cccc2Cl)nc2cc(C(=O)Nc3cc(Cl)ccn3)ccc21 [Example 272, 2-(2,6-Dichloro-phenylamino)-1-(2-methoxy-ethyl)-1H-benzimidazole-5-carboxylic acid (4-chloro-pyridin-2-yl)-amide]	90
Cn1c(Nc2c(Cl)cccc2Cl)nc2cc(C(=O)NC3(C#N)CCCCC3)ccc21 [Example 257, 2-(2,6-Dichloro-phenylamino)-1-methyl-1H-benzimidazole-5-carboxylic acid (1-cyano-cyclohexyl)-amide]	100
Cn1c(Nc2c(Cl)cccc2Cl)nc2cc(C(=O)NCCc3ccccn3)ccc21 [Example 258, 2-(2,6-Dichloro-phenylamino)-1-methyl-1H-benzimidazole-5-carboxylic acid (2-pyridin-2-yl-ethyl)-amide]	83
O=C(NCc1ncccc1C(F)(F)F)c1ccc2[nH]c(Nc3c(Cl)cccc3Cl)nc2c1 [Example 220, 2-(2,6-Dichloro-phenylamino)-1H-benzimidazole-5-carboxylic acid (3-trifluoromethyl-pyridin-2-ylmethyl)-amide]	96
Cc1cc(C)nc(NC(=O)c2cc3nc(Nc4c(Cl)cccc4Cl)n(C)c3cc2F)c1 [Example 128, 2-(2,6-Dichloro-phenylamino)-6-fluoro-1-methyl-1H-benzimidazole-5-carboxylic acid (4,6-dimethyl-pyridin-2-yl)-amide]	100
Cc1cc(C(=O)Nc2ccc(Cl)c(F)c2)cc2nc(Nc3c(Cl)cccc3Cl)[nH]c12 [Example 52, 2-(2,6-Dichloro-phenylamino)-7-methyl-1H-benzimidazole-5-carboxylic acid (4-chloro-3-fluoro-phenyl)-amide]	100
O=C(Nc1cccc(F)c1)c1ccc2[nH]c(Nc3c(Cl)cccc3Cl)nc2c1 [Example 285, 2-(2,6-Dichloro-phenylamino)-1H-benzimidazole-5-carboxylic acid (3-fluoro-phenyl)-amide]	100
